Earlier results as cited in PMC9311059, “P‐Glycoprotein and Breast Cancer Resistance Protein Transporter Inhibition by Cyclosporine and Quinidine on the Pharmacokinetics of Oral Rimegepant in Healthy Subjects” (Clinical Pharmacology in Drug Development, 2022).

How the values were obtained:
[1] = cited from earlier work
[2] = system: organic anion transporting polypeptide 1B1; set-up: method as in ref 7 = [7]; PMID 32058712; doi:10.1021/acs.jmedchem.9b01810; 7 Dubowchik GM , Conway CM , Xin AW . Blocking the CGRP pathway for acute and preventive treatment of migraine: the evolution of success . J Med Chem . 2020; 63 ( 13 ): 6600 ‐ 6623 . 32058712 10.1021; conditions: in vitro; cited from earlier work
[3] = set-up: method as in PMID 23965396; conditions: single and 2‐week multiple daily oral doses up to 600 mg; cited from earlier work

N[C@@H]1c2cccnc2[C@H](OC(=O)N2CCC(n3c(=O)[nH]c4ncccc43)CC2)CC[C@H]1c1cccc(F)c1F [Rimegepant]
absolute oral bioavailability ([1]; rimegepant ODT): ≈ 64%
median time to maximum plasma concentration (tmax) ([1]; sublingual administration of rimegepant ODT, fasting conditions): 1.5 h
substrate of organic anion transporting polypeptide 1B1 [2]: not a substrate
tolerability [3]: well tolerated
